Measured values: publication PMC4066452 (Archives of biochemistry and biophysics, 2014)

Target: MtACS (Mycobacterium tuberculosis acetyl-CoA synthetase) (Mycobacterium tuberculosis, UniProt P9WQD1)
Experiment: biochemical

MtACS (Mycobacterium tuberculosis acetyl-CoA synthetase), sequence (P9WQD1 2-651): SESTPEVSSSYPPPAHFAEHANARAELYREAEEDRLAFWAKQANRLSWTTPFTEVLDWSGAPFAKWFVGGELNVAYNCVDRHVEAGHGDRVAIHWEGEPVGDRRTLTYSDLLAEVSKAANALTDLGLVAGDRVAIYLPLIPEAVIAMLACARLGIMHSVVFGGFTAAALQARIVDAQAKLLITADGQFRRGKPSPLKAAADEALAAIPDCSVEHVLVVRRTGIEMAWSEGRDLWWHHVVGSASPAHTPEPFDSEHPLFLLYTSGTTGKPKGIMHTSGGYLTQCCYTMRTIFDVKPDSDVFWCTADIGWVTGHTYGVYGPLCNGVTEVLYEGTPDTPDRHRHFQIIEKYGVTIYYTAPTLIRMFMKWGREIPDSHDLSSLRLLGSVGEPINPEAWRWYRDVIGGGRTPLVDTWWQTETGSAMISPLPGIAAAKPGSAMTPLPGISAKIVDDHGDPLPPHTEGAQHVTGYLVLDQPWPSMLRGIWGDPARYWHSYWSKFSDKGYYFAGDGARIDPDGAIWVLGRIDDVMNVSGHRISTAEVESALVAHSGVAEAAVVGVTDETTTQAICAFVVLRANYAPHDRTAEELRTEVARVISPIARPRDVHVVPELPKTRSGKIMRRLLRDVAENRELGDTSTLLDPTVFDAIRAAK

**Q.** With Nc1ncnc2c1ncn2[C@@H]1O[C@H](COP(=O)(O)CP(=O)(O)OP(=O)(O)O)[C@@H](O)[C@H]1O [AMPCPP] as the compound, how does the Ki read?
**A.** The Ki was 5 ± 0.8 mM.
